Measurements from patent US20160317391A1, “MEDIA MILLING PROCESS FOR THE MANUFACTURE OF ACTIVE PHARMACEUTICAL INGREDIENTS IN PROPELLANTS” (MERCK SHARP & DOHME CORP., priority 2013, published 2016).
“And” between values parts separate entries of the source, which are not always exact repeats. Identical values can stand only once.

Assays:
[1] = Particle size distribution (X50, X90) before and after HFA-LabRAM media milling, […] particle size analyzer; type: physicochemical; details: for particle size (X50) prior to HFA-based RAM milling: unmilled; for X50 after RAM-milling: grades ML001 and SV003; for PSD after HFA Milling X50 / PSD after HFA Milling X90: 80% power
Method: In a typical RAM based media milling process (see FIG. 1), API is added to a glass bottle along with Yttria zirconia (YTZ, diameters ranging from about 0.1 to about 2 mm) beads. Preferred bead sizes are from about 0.05 to about 5 mm. Another preferred bead size is from about 0.1 to about 2 mm. Other components that can be added to the API-bead mixture include stabilizers and surfactants that can augment the milling process. The ratio of the beads to that of the formulation components can be varied to suit the needs of particle size requirements. Particularly preferred ratios of beads to formulation components are from 40:1, 20:1, 15:1, 10:1 and 5:1. The bottle is crimp sealed and filled with appropriate amounts of either HFA227 or HFA134a (or a combination of both at varying ratios). The bottle is then loaded onto a RAM device and milled for a specified duration of time and at a specified power. Milling times include between about 5 minutes to about 300 minutes. Preferred milling times are from about 30 minutes to about 200 minutes and 60 minutes to about 120 minutes. Power includes about 10% to about 100% power. Preferred power range is about 40% to about 100%. Further, preferred power range is about 75% to about 100%. In most cases, the process can proceed to completion without stoppage. However, because of the ease and simplicity of the process, the process flow can be readily altered by stopping the media milling at intermittent time points for a known period of time before restarting the process again. This may be performed to cool the contents of the bottle at regular intervals. After completion, the bottle is allowed to revert to room temperature (if needed) to rapidly vent the HFA. After the process is finished the contents of the bottle (API, any excipients and/or additives, and the beads) are then added to a sieve of appropriate mesh size to separate the beads and the API. The milled API is collected and stored at 0% RH (in a nitrogen glove box) for further use.
GP was milled utilizing LabRAM in both HFA134a and HFA227. The milling was accomplished at different parameters of solids ratio, milling duration and power. YTZ beads ([…]) were utilized.
Lactose is an excipient that is FDA approved and is utilized as a carrier in dry powder inhalers. In one variation of the milling study, β-lactose (anhydrous) purchased from sigma-aldrich was subjected to HFA (HFA227) based media milling using LabRAM at a preset power of 80% and for a duration of 70 minutes. The ratio of YTZ beads ([…]) to β-lactose was maintained at 20:1. Particle size (X50) of β-lactose prior to HFA-based RAM milling was 153.6±7.4 μm. Upon subjecting the unmilled lactose to RAM-milling under the aforementioned conditions, the particle size (X50) of β-lactose was 3.47±0.01 μm.

[2] = DSC thermograms of unmilled and HFA-LabRAM milled material (solid state); type: physicochemical; details: milled versus unmilled material
Excerpt: With respect to the examples below, the milled API was subject to DSC and the thermograms compared to that of the neat unmilled API. The data from the thermograms clearly indicate that the RAM based HFA-milled API maintains its crystalline structure (FIG. 2B). It was also confirmed that the RAM milling process minimized the undesirable amorphous material generation during milling.

[3] = HFA227, 60 mins, API:Bead ratio (w/w) 20, in µm (unit assumed)
[4] = HFA227, 86 min, API:Bead ratio (w/w) 20, in µm (unit assumed)
[5] = HFA227, 90 min, 5 min stop @45, 10 min stop, 90% power for additional 3 mins, API:Bead ratio (w/w) 20, in µm (unit assumed)
[6] = HFA227, 90 min, 5 min stop @45, API:Bead ratio (w/w) 10, in µm (unit assumed)
[7] = HFA227, 105 mins, API:Bead ratio (w/w) 20, in µm (unit assumed)
[8] = unmilled GP, in µm (unit assumed)

SMILES: OC[C@H]1O[C@@H](O[C@H]2[C@H](O)[C@@H](O)[C@H](O)O[C@@H]2CO)[C@H](O)[C@@H](O)[C@H]1O [β-lactose]
- particle size (X50) of the recovered product ([1]; HFA134a, bead to lactose ratio 40:1, 60 minute duration): 2.3 μm
- particle size (X50) after RAM-milling ([1]; HFA227, power 80%, 70 minutes, YTZ beads to β-lactose 20:1): 3.47±0.01 μm
- particle size (X50) prior to HFA-based RAM milling [1]: 153.6±7.4 μm
- solid state after HFA-LabRAM milling (DSC) [2]: crystalline
- solid state after HFA-LabRAM milling (DSC) ([2]; listed as lactose): no glass transition

SMILES: O.OC[C@H]1O[C@@H](O[C@H]2[C@H](O)[C@@H](O)C(O)O[C@@H]2CO)[C@H](O)[C@@H](O)[C@H]1O (some centres unmarked) [Lactose monohydrate]
- X50 after RAM-milling ([1]; HFA134a, similar conditions): 1.9 μm
- X50 after RAM-milling ([1]; HFA227): less than 3 μm

SMILES: C[N+]1(C)CCC(OC(=O)C(O)(c2ccccc2)C2CCCC2)C1.[Br-] (centres unmarked) [HFA-LabRAM milled GP, glycopyrrolate bromide]
- particle size (X50) at start of storage (75% RH and 25° C. study, initial value): 1.54 μm
- particle size (X50) after storage (75% RH and 25° C., within a span of 24 h): 1.78 μm
- increase in PSD (75% RH and 40° C., within 20 h): 0.5 μm

SMILES: C[N+]1(C)CCC(OC(=O)C(O)(c2ccccc2)C2CCCC2)C1.[Br-] (centres unmarked) [jet milled GP, glycopyrrolate bromide]
- time within which X50 / particle size doubles (75% RH and 40° C.): ≤ 6 h
- particle size shown at 24 h (visual observation) (75% RH and 40° C., 24 h, visual observation, […]): 10 μm
- increase in the size of the API (75% RH and 40° C., within 24 h): 100 fold

SMILES: C[N+]1(C)CCC(OC(=O)C(O)(c2ccccc2)C2CCCC2)C1 (centres unmarked) [GP, glycopyrrolate bromide]
- X50 after LabRAM milling, all cases ([1]; HFA134a and HFA227, different solids ratio, milling duration and power, YTZ beads): less than 3 μm
- average X50 after LabRAM milling ([1]; HFA134a, increased solids ratio): 1.5 μm
- PSD after HFA Milling X50 [1, 3]: 3.49 ± 0.02
- PSD after HFA Milling X90 [1, 3]: 15.93 ± 0.14
- PSD after HFA Milling X50 [1, 4]: 1.7
- PSD after HFA Milling X90 [1, 4]: 4.53 ± 0.21
- PSD after HFA Milling X50 [1, 5]: 1.37 ± 0.13
- PSD after HFA Milling X90 [1, 5]: 3.67 ± 0.03
- PSD after HFA Milling X50 [1, 6]: 1.7 and 1.53 ± 0.06
- PSD after HFA Milling X90 [1, 6]: 3.87 ± 0.12 and 3.67 ± 0.06
- PSD after HFA Milling X50 [1, 7]: 2.62 ± .01
- PSD after HFA Milling X90 [1, 7]: 9.83 ± 0.01
- particle size (X50) prior to HFA-based RAM milling [1]: ca. 51 μm
- PSD before HFA Milling X50 [1, 8]: 52.77 ± 1.55 and 52.77 ± 1.56 and 52.77 ± 1.57 and 52.77 ± 1.54
- PSD before HFA Milling X90 [1, 8]: 134.7 ± 9.10 and 134.7 ± 9.11 and 134.7 ± 9.12 and 134.7 ± 9.9
- solid state after HFA-LabRAM milling (DSC) [2]: no change in the polymorphic state
